Measurements from patent US9012489B2, “Phenyl-3-aza-bicyclo[3.1.0]hex-3-yl-methanones and the use thereof as medicament” (Boehringer Ingelheim International GmbH, priority 2011, dated 2015).

Molecular target: T1, GlyT1 transporter (Homo sapiens, UniProt P48067)
T1 construct: endogenously expressing the GlyT1 transporter; host or cells: SK-N-MC human neuroblastoma cells
T1 sequence (P48067 1-706): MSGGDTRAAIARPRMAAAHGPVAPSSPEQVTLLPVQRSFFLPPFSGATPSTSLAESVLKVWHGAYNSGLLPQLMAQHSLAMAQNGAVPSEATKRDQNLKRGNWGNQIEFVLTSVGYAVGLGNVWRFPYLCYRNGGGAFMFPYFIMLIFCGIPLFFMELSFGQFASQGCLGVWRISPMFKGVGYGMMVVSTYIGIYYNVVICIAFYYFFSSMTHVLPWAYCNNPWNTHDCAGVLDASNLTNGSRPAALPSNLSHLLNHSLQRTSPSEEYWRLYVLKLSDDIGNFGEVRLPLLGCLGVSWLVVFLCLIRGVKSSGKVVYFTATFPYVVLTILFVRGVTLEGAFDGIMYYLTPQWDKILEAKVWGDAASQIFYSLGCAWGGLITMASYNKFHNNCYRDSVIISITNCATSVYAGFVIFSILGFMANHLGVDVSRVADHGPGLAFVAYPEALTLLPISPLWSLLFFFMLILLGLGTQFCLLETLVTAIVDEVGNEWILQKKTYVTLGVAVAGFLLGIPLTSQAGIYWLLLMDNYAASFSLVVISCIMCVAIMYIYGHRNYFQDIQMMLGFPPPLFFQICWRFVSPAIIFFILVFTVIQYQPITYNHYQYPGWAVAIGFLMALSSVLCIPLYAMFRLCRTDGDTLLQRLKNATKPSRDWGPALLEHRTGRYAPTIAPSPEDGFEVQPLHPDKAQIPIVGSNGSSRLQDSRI
Experiment: GlyT1 assay: 3H-glycine uptake into SK-N-MC cells (Cytostar-T format)
Type: cell-based
Settings: glycine uptake in human SK-N-MC cells endogenously expressing GlyT1; 500 nM glycine, 1% DMSO, signal recorded over 60 min
Description: Cells expressing either endogenously the GlyT1 transporter like JAR cells (human placental choriocarcinoma cells; e.g. WO 2008/002583) or SK-N-MC cells (human neuroblastoma cells; Depoortere et al., 2005. Neuropsychopharmacology 30:1963-1985) or primary neurons or cells which have been transfected with a plasmid encoding the cDNA of a functional GlyT1 transporter and stably or transiently express GlyT1 (e.g. WO 2006/08200) can be used to monitor glycine uptake in cells. Different protocols for determination of the glycine uptake into the cells described above can be applied in order to identify and rank compounds which interfere with glycine uptake in the selected cell.
Compounds outlined in the examples below were characterized using human SK-N-MC cells (ATCC number HTB-10) endogenously expressing the GlyT1 transporter which is responsible for the uptake of glycine into these cells and the uptake of glycine into these cells is monitored using the Cytostar-T assay format (GE Healthcare, RPNQ0162) which is based on the radioactive glycine taken up by the cells and brought into proximity with the scintillant contained within the base of the plate. The radioactive decay is converted to a light signal based on the integration of the scintillation matrix into the assay plate. The uptake is recorded as kinetic and the slope of the measured counts over time is used to calculate IC50.
In detail, SK-N-MC cells are seeded into 96-well Cytostar-T assay plates at a density of 200,000 cells/well and grown for 16-18 hours to confluence in growth medium as recommended by ATCC. Before starting the assay, cells are washed once with HBSS (Hank's buffered salt solution; Sigma, H8264) cont. 5 mM alanine (referred in here as HBSS/Ala) and afterwards the following reagents are added: • 1. 80 μl/well HBSS/Ala • 2. 20 μl/well of HBSS/Ala containing 6× the concentration of compound in 6% DMSO • 3. approx. 5-10 min incubation • 4. 20 μl/well 3 μM glycine (^3H-glycine (Perkin Elmer, NET004001MC, specific activity: 52 Ci/mmol; diluted 1:1 with unlabelled glycine) in HBSS/Ala.
In the final assay, glycine concentration is 500 nM (250 nM derived from the ^3H-glycine Perkin Elmer, 250 nM unlabelled glycine), DMSO concentration is 1%.
The assay plate is immediately after addition of the ^3H-glycine placed into a Micro-Beta Counter (Perkin Elmer) and the signal is recorded over 60 min.
To calculate uptake, the slope in the linear range of the kinetics is determined using GraphPadPrism and for the different slopes at the selected concentrations IC50 are calculated by curve fitting using the software GraphPadPrism.
Maximal glycine uptake in every experiment is determined by incubation of SK-N-MC cells with substrate but without inhibitor. Unspecific uptake of glycine by the cells is determined by incubating the cells with substrate and a reference GlyT1 inhibitor e.g. 10 μM RG-1678 (Pinard et al., 2010, J. Med. Chem. 53(12):4603-14).
Compounds are diluted from 10 mM stocks and in general, for IC50 determination 8 compound concentrations are used.

Q: `C[C@H](Oc1ccc(S(C)(=O)=O)cc1C(=O)N1CC2CC2(c2noc(C3(C)CC3)n2)C1)C(F)(F)F` (mixture of isomers) [Example 134, [5-Methanesulfonyl-2-(2,2,2-trifluoro-1-methyl-ethoxy)-phenyl]-{1-[5-(1-methyl-cyclopropyl)-[1,2,4]oxadiazol-3-yl]-3-aza-bicyclo[3.1.0]hex-3-yl}-methanone] was tested. Which IC50 did it give?
A: Its IC50 is 0.008 µM.

Q: Which IC50 does the source give for `CC(C)Oc1ccc(S(C)(=O)=O)cc1C(=O)N1CC2CC2(c2noc(C3(C(F)(F)F)CC3)n2)C1` (single isomer, unassigned) [Example 142, (2-Isopropoxy-5-methanesulfonyl-phenyl)-{1-[5-(1-trifluoromethyl-cyclopropyl)-[1,2,4]oxadiazol-3-yl]-3-aza-bicyclo[3.1.0]hex-3-yl}-methanone] here?
A: The IC50 was 0.003 µM.

Q: For `CCS(=O)(=O)c1ccc(O[C@@H](C)C(F)(F)F)c(C(=O)N2CC3CC3(c3nccc(C(F)(F)F)n3)C2)c1` (mixture of isomers) [Example 73, [5-Ethanesulfonyl-2-(2,2,2-trifluoro-1-methyl-ethoxy)-phenyl]-[1-(4-trifluoromethyl-pyrimidin-2-yl)-3-aza-bicyclo[3.1.0]hex-3-yl]-methanone], which IC50 is on record?
A: Its IC50 is 0.009 µM.

Q: How did the IC50 turn out when `C[C@@H](Oc1ccc(S(C)(=O)=O)cc1C(=O)N1CC2CC2(c2noc(C3CC3)n2)C1)C(F)(F)F` (single isomer, unassigned) [Example 45, [1-(5-Cyclopropyl-[1,2,4]oxadiazol-3-yl)-3-aza-bicyclo[3.1.0]hex-3-yl]-[5-methanesulfonyl-2-(2,2,2-trifluoro-1-methyl-ethoxy)-phenyl]-methanone] was run?
A: The IC50 was 0.002 µM.

Q: With `C[C@@H](Oc1ccc(S(C)(=O)=O)cc1C(=O)N1CC2CC2(c2nccc(C(F)(F)F)n2)C1)C(F)(F)F` (mixture of isomers) [Example 72, [5-Methanesulfonyl-2-(2,2,2-trifluoro-1-methyl-ethoxy)-phenyl]-[1-(4-trifluoromethyl-pyrimidin-2-yl)-3-aza-bicyclo[3.1.0]hex-3-yl]-methanone] as the compound, how does the IC50 read?
A: The IC50 was 0.017 µM.

Q: For `C[C@H](Oc1ccc(S(C)(=O)=O)cc1C(=O)N1CC2CC2(c2noc(C3CC(F)(F)C3)n2)C1)C(F)(F)F` (single isomer, unassigned) [Example 59], which IC50 is on record?
A: The IC50 was 0.008 µM.

Q: `COC1(c2nc(C34CC3CN(C(=O)c3cc(S(C)(=O)=O)ccc3O[C@H](C)C(F)(F)F)C4)no2)CC1` (mixture of isomers) [Example 119, [5-Methanesulfonyl-2-(2,2,2-trifluoro-1-methyl-ethoxy)-phenyl]-{1-[5-(1-methoxy-cyclopropyl)-[1,2,4]oxadiazol-3-yl]-3-aza-bicyclo[3.1.0]hex-3-yl}-methanone] was tested. Which IC50 did it give?
A: The IC50 was 0.011 µM.

Q: `C[C@H](Oc1ccc(S(C)(=O)=O)cc1C(=O)N1CC2(C)CC2(c2noc(C(F)(F)F)n2)C1)C(F)(F)F` (mixture of isomers) [Example 157, [5-Methanesulfonyl-2-(2,2,2-trifluoro-1-methyl-ethoxy)-phenyl]-[1-methyl-5-(5-trifluoromethyl-[1,2,4]oxadiazol-3-yl)-3-aza-bicyclo[3.1.0]hex-3-yl]-methanone] was tested. Which IC50 did it give?
A: The IC50 was 0.147 µM.

Q: `C[C@H](Oc1ccc(S(C)(=O)=O)cc1C(=O)N1CC2CC2(c2noc(C3(C(F)(F)F)CC3)n2)C1)C(F)(F)F` (single isomer, unassigned) [Example 67, [5-Methanesulfonyl-2-(2,2,2-trifluoro-1-methyl-ethoxy)-phenyl]-{1-[5-(1-trifluoromethyl-cyclopropyl)-[1,2,4]oxadiazol-3-yl]-3-aza-bicyclo[3.1.0]hex-3-yl}-methanone] was tested. Which IC50 did it give?
A: The IC50 was 0.1 µM.

Q: Which IC50 does the source give for `C[C@@H](Oc1ccc(S(C)(=O)=O)cc1C(=O)N1CC2CC2(c2ncc(C(F)(F)F)o2)C1)C(F)(F)F` (single isomer, unassigned) [Example 130, [5-Methanesulfonyl-2-(2,2,2-trifluoro-1-methyl-ethoxy)-phenyl]-[1-(5-trifluoromethyl-oxazol-2-yl)-3-aza-bicyclo[3.1.0]hex-3-yl]-methanone] here?
A: The IC50 was 0.003 µM.

Q: With `C[C@H](Oc1ccc(S(C)(=O)=O)cc1C(=O)N1CC2CC2(c2ncco2)C1)C(F)(F)F` (mixture of isomers) [Example 20, [5-Methanesulfonyl-2-(2,2,2-trifluoro-1-methyl-ethoxy)-phenyl]-(1-oxazol-2-yl-3-aza-bicyclo[3.1.0]hex-3-yl)-methanone] as the compound, how does the IC50 read?
A: The IC50 was 0.101 µM.

Q: Which IC50 does the source give for `C[C@H](Oc1ccc(S(C)(=O)=O)cc1C(=O)N1CC2CC2(c2cccc(C(F)(F)F)n2)C1)C(F)(F)F` (mixture of isomers) [Example 54, [5-Methanesulfonyl-2-(2,2,2-trifluoro-1-methyl-ethoxy)-phenyl]-[1-(6-trifluoromethyl-pyridin-2-yl)-3-aza-bicyclo[3.1.0]hex-3-yl]-methanone] here?
A: Its IC50 is 0.016 µM.

Q: Which IC50 does the source give for `C[C@H](Oc1ccc(S(C)(=O)=O)cc1C(=O)N1CC2CC2(c2noc(C3(C)COC3)n2)C1)C(F)(F)F` (mixture of isomers) [Example 62, [5-Methanesulfonyl-2-(2,2,2-trifluoro-1-methyl-ethoxy)phenyl]-{1-[5-(3-methyl-oxetan-3-yl)-[1,2,4]oxadiazol-3-yl]-3-aza-bicyclo[3.1.0]hex-3-yl}-methanone] here?
A: The IC50 was 0.01 µM.

Q: How did the IC50 turn out when `C[C@H](Oc1ccc(S(C)(=O)=O)cc1C(=O)N1CC2CC2(c2cc(C(F)(F)F)on2)C1)C(F)(F)F` (single isomer, unassigned) [Example 48, [5-Methanesulfonyl-2-(2,2,2-trifluoro-1-methyl-ethoxy)-phenyl]-[1-(5-trifluoromethyl-isoxazol-3-yl)-3-aza-bicyclo[3.1.0]hex-3-yl]-methanone] was run?
A: The IC50 was 0.886 µM.

Q: `C[C@@H](Oc1ccc(S(C)(=O)=O)cc1C(=O)N1CC2CC2(c2cc(C(F)(F)F)on2)C1)C(F)(F)F` (mixture of isomers) [Example 49, [5-Methanesulfonyl-2-(2,2,2-trifluoro-1-methyl-ethoxy)-phenyl]-[1-(5-trifluoromethyl-isoxazol-3-yl)-3-aza-bicyclo[3.1.0]hex-3-yl]-methanone] was tested. Which IC50 did it give?
A: The IC50 was 0.019 µM.

Q: `C[C@@H](Oc1ccc(S(C)(=O)=O)cc1C(=O)N1CC2CC2(c2coc(C3CC3)n2)C1)C(F)(F)F` (single isomer, unassigned) [Example 82] was tested. Which IC50 did it give?
A: Its IC50 is 0.782 µM.

Q: Which IC50 does the source give for `Cc1nnc(C23CC2CN(C(=O)c2cc(S(C)(=O)=O)ccc2O[C@@H](C)C(F)(F)F)C3)o1` (mixture of isomers) [Example 38, [5-Methanesulfonyl-2-(2,2,2-trifluoro-1-methyl-ethoxy)-phenyl]-[1-(5-methyl-[1,3,4]oxadiazol-2-yl)-3-aza-bicyclo[3.1.0]hex-3-yl]-methanone] here?
A: The IC50 was 0.089 µM.

Q: How did the IC50 turn out when `C[C@H](Oc1ccc(S(C)(=O)=O)cc1C(=O)N1CC2CC2(c2nnc(C(F)(F)F)o2)C1)C(F)(F)F` (single isomer, unassigned) [Example 127, [5-Methanesulfonyl-2-(2,2,2-trifluoro-1-methyl-ethoxy)-phenyl]-[1-(5-trifluoromethyl-[1,3,4]oxadiazol-2-yl)-3-aza-bicyclo[3.1.0]hex-3-yl]-methanone] was run?
A: The IC50 was 2.66 µM.

Q: Which IC50 does the source give for `C[C@H](Oc1ccc(S(C)(=O)=O)cc1C(=O)N1CC2CC2(c2coc(C3CC3)n2)C1)C(F)(F)F` (mixture of isomers) [Example 80, [1-(2-Cyclopropyl-oxazol-4-yl)-3-aza-bicyclo[3.1.0]hex-3-yl]-[5-methanesulfonyl-2-((S)-2,2,2-trifluoro-1-methyl-ethoxy)-phenyl]-methanone] here?
A: The IC50 was 0.003 µM.
